Assay results reported in US20090075948A1, “COMPOSITIONS AND METHODS FOR REGULATING CELLULAR PROTECTION” (California Institute of Technology, priority 2007, published 2009).

Legend:
Assay type in all cases: cell-based, Drosophila
[1] = test system: Hsp70; assay: Hsp70 transcription, primer-extension analysis of isolated RNA; details: for stimulation of Hsp70 transcription: without cellular stress
Experimental: FIG. 15. Time course for Hsp70 transcription induction by 3 mM salicylic acid. Cells were treated with 3 mM salicylic acid and RNA was isolated at the indicated times.
Control cells (lanes 1 and 2) show activation of Hsp70 transcription as a result of a ten-minute heat shock. […] Lanes 3 and 4 contain RNA from KD cells with RNAi against Hsc4p. […] When Hsc4p levels are reduced, HSF is able to bind DNA and activate transcription without heat shock.

[2] = test system: Hsp70; assay: Induction of Hsp70 protein synthesis in cultured cells; details: for optimal concentration for induction of Hsp70 protein synthesis: treated 60 minutes, no heat shock; for stimulation of Hsp70 protein synthesis: without cellular stress
Experimental: FIG. 14. Induction of HSF DNA binding and hsp70 protein synthesis by ibuprofen and salicylic acid. The concentrations of ibuprofen and salicylic acid are shown as mM. Both DNA binding and Hsp70 protein synthesis follow the same optimal concentrations. The cells were treated for 60 minutes with the indicated drug and whole cell extracts prepared for analysis. […] The goal here is to activate HSF to produce adequate levels of Hsp70 that can provide neuroprotective functions to the human brain. To begin these studies, two common non-steroidal anti-inflammatory drugs (NSAIDs), ibuprofen and salicylic acid, were tested. These molecules have been previously shown to stimulate HSF DNA binding in mammalian and Drosophila cells. The findings presented here differ from those previously published. As reported here, both salicylic acid and ibuprofen can stimulate HSF DNA binding, Hsp70 transcription and Hsp70 protein synthesis. […] It is clear that both DNA binding and Hsp70 protein synthesis have identical optimums.

[3] = test system: HSF; assay: HSF DNA binding activity, gel mobility shift assay (EMSA) with whole cell extracts and labeled HSE; details: for optimal concentration for induction of HSF DNA binding: treated 60 minutes, no heat shock; for stimulation of HSF DNA binding: without cellular stress
Experimental: FIG. 14. Induction of HSF DNA binding and hsp70 protein synthesis by ibuprofen and salicylic acid. The concentrations of ibuprofen and salicylic acid are shown as mM. Both DNA binding and Hsp70 protein synthesis follow the same optimal concentrations. The cells were treated for 60 minutes with the indicated drug and whole cell extracts prepared for analysis.
The effect of the KDs on DNA binding was first examined using the gel mobility shift assay. Briefly cells were treated with RNAi or transfected with the indicated DNA constructs and harvested four days later. Whole cell extracts were prepared and DNA binding carried out with a labeled heat shock element (HSE) double stranded oligonucleotide. Lanes 1 and 2 represent control cells, non-shocked and heat shocked, respectively. […] Lanes 3 and 4 contain extract derived from the Hsc3p KD cells.

[4] = Drosophila cultured cells, 60 minutes

| SMILES | time course of Hsp70 transcription induction ([1]; 3 mM salicylic acid) | stimulation of Hsp70 transcription [1] | low concentration that still functions for Hsp70 protein synthesis [2, 4] [mM] | optimal concentration for induction of Hsp70 protein synthesis ([2]; Drosophila cultured cells) | stimulation of Hsp70 protein synthesis [2] | low concentration that still functions for HSF DNA binding [3, 4] [mM] | optimal concentration for induction of HSF DNA binding ([3]; Drosophila cultured cells) | stimulation of HSF DNA binding [3] |
| --- | --- | --- | --- | --- | --- | --- | --- | --- |
| O=C(O)c1ccccc1O [salicylic acid] | induced rapidly | can stimulate | 1 | quite broad | can stimulate | 1 | quite broad | can stimulate |
| CC(C)Cc1ccc(C(C)C(=O)O)cc1 (stereo not shown) [ibuprofen] | – | can stimulate | – | 3 to 10 mM | can stimulate | – | 3 to 10 mM | can stimulate |
